Measurements as given in patent US20040229219A1 (priority 2003, published 2004).

What was measured:
measles virus = settings: cited from earlier work
HIV-1 = settings: cited from earlier work

Which “non-specific cytotoxic effects of the peptide on cells (morphology)” value (L2 cells) does the source give for `CC[C@H](C)[C@H](NC(=O)[C@H](CC(C)C)NC(=O)[C@H](CC(C)C)NC(=O)[C@H](Cc1c[nH]c2ccccc12)NC(=O)[C@@H](NC(=O)[C@H](Cc1ccc(O)cc1)NC(=O)[C@H](Cc1c[nH]c2ccccc12)NC(=O)[C@@H]1CCCN1C(=O)[C@H](Cc1c[nH]c2ccccc12)NC(=O)[C@H](CCCCN)NC(=O)[C@@H](NC(=O)[C@H](Cc1ccc(O)cc1)NC(=O)[C@H](CCSC)NC(=O)[C@H](CCC(=O)O)NC(=O)[C@H](Cc1ccc(O)cc1)NC(=O)[C@@H](NC(=O)CNC(=O)[C@@H](NC(=O)[C@H](CCC(=O)O)NC(=O)[C@H](CCCCN)NC(=O)[C@H](CC(C)C)NC(=O)[C@H](CC(N)=O)NC(=O)[C@@H](NC(=O)[C@H](Cc1ccc(O)cc1)NC(=O)[C@H](CO)NC(=O)[C@H](CCC(=O)O)NC(=O)[C@H](CC(N)=O)NC(=O)[C@H](CC(C)C)NC(=O)[C@H](CCCCN)NC(=O)[C@H](CCCCN)NC(=O)[C@@H](NC(=O)[C@H](C)NC(=O)[C@H](CC(=O)O)NC(=O)[C@H](CCC(N)=O)NC(=O)[C@@H](NC(=O)[C@@H](N)CCCNC(=N)N)[C@@H](C)CC)[C@@H](C)CC)[C@@H](C)CC)C(C)C)[C@@H](C)O)C(C)C)C(C)C)C(=O)O` [SEQ ID NO: 52] here?
Its value is “normal morphology”.

With “carbobenzoxy derivative of phenylalanine-phenylalanine-glycine [z-FFG]” as the compound, how does the “activity against measles virus” value (measles virus) read?
Its value is “effective”.

Which “concentration range that suppresses HIV-1 infection” value (HIV-1) does the source give for enfuvirtide here?
The value was “nanomolar range”.
